Reference: patent US6638921B1, “Pyridoxal-5-phosphate derivatives as HIV integrase inhibitors” (Pharmacor Inc., priority 2002, dated 2003)
Structures can show the parent of a compound that is named as a salt. Where two headings read alike, the source gives them in different places.

Columns and labels:
[1] = tested on: HIV-1 laboratory viral strain NL4.3; test: Anti-viral assay in vitro (MTT, infected MT-4 cells); format: cell-based; conditions: reduce virus replication in cell culture by 50%, six days
Description: (§1) To evaluate the EC50 of our compounds, various drug concentrations are incubated with the infected cell for six days and then the metabolic activity of the cells is monitored by the MTT assay. (See A. J. Japour et al, Antimicrobial Agents and Chemotherapy, 37, 1095-1101, 1993 and R. Pauwels et al. Journal of Virological Methods, 20, 309-321, 1988).
(§2) We use the laboratory viral strain NL4.3 as wild type virus and the cell line used is MT-4 which is a T-cell line highly sensitive to HIV-1. We also use some WT clinical strains. To address the resistance issue we assay the inhibitors with NL4.3 mutants which are designed to be resistant to specific commercially available inhibitors. The following reagents were obtained through the AIDS Research and Reference Reagent Program, division of AIDS, NIAID, NIH: pNL4.3 from Dr. Malcolm Martin; MT-4 cell line from Dr. Douglas Richman. Wild type (WT) clinical strains were obtained from “Laboratoire de santé publique du Québec”.

HIV-1 integrase = HIV-1 integrase (Human immunodeficiency virus type 1 group M subtype B, UniProt P12497); test: HIV-1 integrase inhibition assay in vitro (radiolabeled duplex substrate, U5 end of HIV LTR); format: biochemical
Description: For the purpose of Table 1, the HIV-1 integrase inhibition assay was carried out following a known procedure (Burke, Jr. T. R. et al., J. Med. Chem. 38, 4171-4178 (1995)). A suitable radiolabeled duplex substrate corresponding to the U5 end of the HIV LTR was used.

MT-4 cell line = test: Cytotoxicity assay in vitro (MTT, virus omitted); format: cell-based
Description: as §1, §2
The same MTT assay is used to evaluate the CCIC50 of our compounds except that the virus is omitted.

[2] = concentration of drug required to reduce the enzyme activity by 50%, read-out: IC50
[3] = Human immunodeficiency virus 1, MT4, 144 h
[4] = IC50, concentration of drug required to reduce the enzyme activity by 50%

| Compound | IC50 (HIV-1 integrase; [2]) | EC50 [1, 3] | IC50 (HIV-1 integrase; [4]) | CCIC50 (MT-4 cell line; human, 6 days) | also measured |
| --- | --- | --- | --- | --- | --- |
| 6-[4-(N-(2-E-Caprolactamyl)-N-isobutylsulfamoyl)phenylazo]-pyridoxal-5-phosphate Hydrochloride [Example 5] | 0.6 µM | – | – | – | EC50 ([1]; read-out: EC50): 17 µM; CCIC50 (MT-4 cell line): >100 µM |
| Cc1nc(N=Nc2cccc(C(=O)O)c2C)c(COP(=O)(O)O)c(C=O)c1O [Example 1, 6-(3-Carboxy-2-methylphenylazo)-pyridoxal-5-phosphate] | – | 2 µM | 1.2 µM | >100 µM | – |
| Cc1nc(N=Nc2ccc(S(N)(=O)=O)cc2)c(COP(=O)(O)O)c(C=O)c1O [Example 2, 6-(4-Sulfamoylphenylazo)-pyridoxal-5-phosphate] | – | 5 µM | 0.25 µM | >100 µM | – |
| Cc1nc(N=Nc2ccc(S(=O)(=O)NC34CC5CC(CC(C5)C3)C4)cc2)c(COP(=O)(O)O)c(C=O)c1O [Example 3, 6-[4-(N-(1-Adamantyl)sulfamoyl)phenylazo]-pyridoxal-5-phosphate Hydrochloride] | – | 19.8 µM | 0.2 µM | 12 µM | – |
| Cc1nc(N=Nc2cccc(C(=O)NC34CC5CC(CC(C5)C3)C4)c2)c(COP(=O)(O)O)c(C=O)c1O [Example 4, 6-[3-(N-(1-Adamantyl)carbamoyl)phenylazo]-pyridoxal-5-phosphate Hydrochloride] | – | 50 µM | 0.4 µM | 13 µM | – |
| Cc1nc(N=Nc2cccc(S(=O)(=O)N3CCCCC3)c2)c(COP(=O)(O)O)c(C=O)c1O [Example 6, 6-[3-(1-Piperidinesulfonyl)phenylazo]-pyridoxal-5-phosphate] | 4.37 µM | – | – | – | – |
| Cc1nc(N=Nc2ccc(S(=O)(=O)N3CCCCC3)cc2)c(COP(=O)(O)O)c(C=O)c1O [Example 7, 6-[4-(1-Piperidinesulfonyl)phenylazo]-pyridoxal-5-phosphate] | – | 12.5 µM | 2.5 µM | >100 µM | – |
| Cc1nc(/N=N/c2cccc(C(=O)N3CCCCC3)c2)c(COP(=O)(O)O)c(C=O)c1O [Example 8, 6-[3-(1-Piperidinecarbonyl)phenylazo]-pyridoxal-5-phosphate] | 2.8 µM | – | – | – | – |
| Cc1nc(N=Nc2cccc(S(=O)(=O)NC(C)(C)C)c2)c(COP(=O)(O)O)c(C=O)c1O [Example 9, 6-[3-(tert-Butylsulfamoyl)phenylazo]-pyridoxal-5-phosphate] | – | 15 µM | 3 µM | 57 µM | – |
| Cc1nc(N=Nc2ccc(S(=O)(=O)NC(C)(C)C)cc2)c(COP(=O)(O)O)c(C=O)c1O [Example 10, 6-[4-(tert-Butylsulfamoyl)phenylazo]-pyridoxal-5-phosphate] | 4.25 µM | – | – | – | – |
| Cc1nc(N=Nc2ccc(C(=O)NC(C)(C)C)cc2)c(COP(=O)(O)O)c(C=O)c1O [Example 11, 6-[4-(tert-Butylcarbamoyl)phenylazo]-pyridoxal-5-phosphate] | 2.73 µM | – | – | – | – |
| Cc1nc(N=Nc2cccc(S(=O)(=O)N3CCCC3)c2)c(COP(=O)(O)O)c(C=O)c1O [Example 12, 6-[3-(1-Pyrrolinesulfonyl)phenylazo]-pyridoxal-5-phosphate] | 2.9 µM | – | – | – | – |
| Cc1nc(N=Nc2cccc(C(=O)NCC(C)C)c2)c(COP(=O)(O)O)c(C=O)c1O [Example 13, 6-[3-(Isobutylcarbamoyl)phenylazo]-pyridoxal-5-phosphate] | – | 50 µM | 1.3 µM | 90 µM | – |
| Cc1nc(N=Nc2ccc(C(=O)NC3CCCCC3)cc2)c(COP(=O)(O)O)c(C=O)c1O [Example 14, 6-[4-(Cyclohexylcarbamoyl)phenylazo]-pyridoxal-5-phosphate] | 4.36 µM | – | – | – | – |
| Cc1nc(N=Nc2ccc(S(=O)(=O)N3CCCC3)cc2)c(COP(=O)(O)O)c(C=O)c1O [Example 15, 6-[4-(1-Pyrrolinesulfonyl)phenylazo]-pyridoxal-5-phosphate] | 1.7 µM | – | – | – | – |
| Cc1nc(N=Nc2cccc(S(=O)(=O)NCC(C)C)c2)c(COP(=O)(O)O)c(C=O)c1O [Example 16, 6-[3-(Isobutylsulfamoyl)phenylazo]-pyridoxal-5-phosphate] | 1.9 µM | – | – | – | – |
| Cc1nc(N=Nc2ccc(S(=O)(=O)NCC(C)C)cc2)c(COP(=O)(O)O)c(C=O)c1O [Example 17, 6-[4-(Isobutylsulfamoyl)phenylazo]pyridoxal-5-phosphate] | 2.45 µM | – | – | – | – |
| Cc1nc(N=Nc2ccc(S(=O)(=O)NC3CCCCC3)cc2)c(COP(=O)(O)O)c(C=O)c1O [Example 18, 6-[4-(Cyclohexylsulfamoyl)phenylazo]-pyridoxal-5-phosphate] | 2.2 µM | – | – | – | – |
| CCCCNS(=O)(=O)c1cccc(N=Nc2nc(C)c(O)c(C=O)c2COP(=O)(O)O)c1 [Example 19, 6-[3-(Butylsulfamoyl)phenylazo]-pyridoxal-5-phosphate] | 2 µM | – | – | – | – |

| Compound | IC50 (HIV-1 integrase; [2]) | EC50 [1, 3] | IC50 (HIV-1 integrase; [4]) | CCIC50 (MT-4 cell line; human, 6 days) | also measured |
| --- | --- | --- | --- | --- | --- |
| CNS(=O)(=O)c1ccc(N=Nc2nc(C)c(O)c(C=O)c2COP(=O)(O)O)cc1 [Example 20, 6-[4-(Methylsulfamoyl)phenylazo]-pyridoxal-5-phosphate] | 1.2 µM | – | – | – | – |
| Cc1nc(N=Nc2cccc(S(=O)(=O)NCCO)c2)c(COP(=O)(O)O)c(C=O)c1O [Example 21, 6-[3-(2-Hydroxyethylsulfamoyl)phenylazo]-pyridoxal-5-phosphate] | 2.45 µM | – | – | – | – |
| Cc1nc(N=Nc2cc(C(=O)O)cc(C(=O)O)c2)c(COP(=O)(O)O)c(C=O)c1O [Example 22, 6-(3,5-Dicarboxyphenylazo)-pyridoxal-5-phosphate] | – | – | 0.43 µM | >100 µM | – |
| Cc1cc(NS(=O)(=O)c2ccc(N=Nc3nc(C)c(O)c(C=O)c3COP(=O)(O)O)cc2)nc(C)n1 [Example 23] | 2.75 µM | – | – | – | – |
| Cc1nc(N=Nc2ccc(S(=O)(=O)Nc3nccs3)cc2)c(COP(=O)(O)O)c(C=O)c1O [Example 24, 6-[4-(2-Thiazolylsulfamoyl)phenylazo]-pyridoxal-5-phosphate] | – | 23 µM | 0.365 µM | >100 µM | – |
| Cc1nc(N=Nc2ccc(S(=O)(=O)Nc3ncccn3)cc2)c(COP(=O)(O)O)c(C=O)c1O [Example 25, 6-[4-(2-Pyrimidylsulfamoyl)phenylazo]-pyridoxal-5-phosphate] | – | 4.3 µM | 0.3 µM | >100 µM | – |
| CNS(=O)(=O)c1cccc(N=Nc2nc(C)c(O)c(C=O)c2COP(=O)(O)O)c1 [Example 26, 6-[3-(Methylsulfamoyl)phenylazo]-pyridoxal-5-phosphate] | 3.7 µM | – | – | – | – |
| Cc1nc(N=Nc2ccc(S(=O)(=O)Nc3ccon3)cc2)c(COP(=O)(O)O)c(C=O)c1O [Example 32, 6-[4-(3-Isoazolylsulfamoyl)phenylazo]-pyridoxal-5-phosphate] | 3 µM | 50 µM | – | – | – |
| Cc1nc(N=Nc2ccccc2[N+](=O)[O-])c(COP(=O)(O)O)c(C=O)c1O [Example 33, 6-(2-Nitrophenylazo)-pyridoxal-5-phosphate] | 5.25 µM | 33 µM | – | – | – |
| Cc1nc(N=Nc2cccc(Cl)c2)c(COP(=O)(O)O)c(C=O)c1O [Example 34, 6-(3-Chlorophenylazo)-pyridoxal-5-phosphate] | 2.6 µM | 45 µM | – | – | – |
| Cc1nc(N=Nc2cccc(S(N)(=O)=O)c2)c(COP(=O)(O)O)c(C=O)c1O [Example 35, 6-(3-Sulfamoylphenylazo)-pyridoxal-5-phosphate] | 12.8 µM | – | – | – | – |
| Cc1nc(N=Nc2cccc(C(=O)NC3=NCCCN3)c2)c(COP(=O)(O)O)c(C=O)c1O [Example 36, 6-[3-(2-(1,4,5,6-Tetrahydropyrimidyl)carbamoyl)phenylazo]-pyridoxal-5-phosphate] | 6.2 µM | – | – | – | – |
| Cc1nc(N=Nc2ccc(C#N)cc2)c(COP(=O)(O)O)c(C=O)c1O [Example 42, 6-(4-Cyanophenylazo)-pyridoxal-5-phosphate] | – | – | 11.3 µM | >100 µM | – |
| Cc1nc(N=Nc2ccc(C(N)=O)cc2)c(COP(=O)(O)O)c(C=O)c1O [Example 43, 6-(4-Carbamoylphenylazo)-pyridoxal-5-phosphate] | 8.7 µM | – | – | – | – |
| Cc1nc(N=Nc2ccc(S(=O)(=O)Nc3ccccc3F)cc2)c(COP(=O)(O)O)c(C=O)c1O [Example 44, 6-[4-(2-Fluorophenylsulfamoyl)phenylazo]pyridoxal-5-phosphate] | 7.7 µM | – | – | – | – |
| Cc1nc(N=Nc2ccc(S(=O)(=O)Nc3cccc(F)c3)cc2)c(COP(=O)(O)O)c(C=O)c1O [Example 45, 6-[4-(3-Fluorophenylsulfamoyl)phenylazo]-pyridoxal-5-phosphate] | 10.5 µM | – | – | – | – |
| Cc1nc(N=Nc2ccc(S(=O)(=O)Nc3ccc(F)cc3)cc2)c(COP(=O)(O)O)c(C=O)c1O [Example 46, 6-[4-(4-Fluorophenylsulfamoyl)phenylazo]-pyridoxal-5-phosphate] | – | – | 1.5 µM | 32 µM | – |
| Cc1nc(N=Nc2ccc(S(=O)(=O)Nc3ncccn3)cc2)c(COP(=O)(O)O)c(C=NO)c1O [Example 53, 6-[4-(2-Pyrimidylsulfamoyl)phenylazo]-pyridoxal-5-phosphate Oxime] | 2 µM | 15 µM | – | – | – |
